{"source": "patent US20090311344A1", "about": "“Dosing Regimen” (priority 2008, published 2009)", "assay": "Multiple dose study in cancer subjects: treatment-emergent (serious) adverse events", "experimental": "46 subjects with cancer receiving platinum-based therapies were enrolled into 3 cohorts (N=16 in Cohort 1, 14 in Cohort 2, and 16 in Cohort 3). The subjects received the TPO mimetic peptide compound or placebo within 2 hours prior to the platinum-based chemotherapy on Day 1 of the first 2 cycles with a 21-day interval between each cycle. In addition to the Day 1 administration, gemcitabine administration was permitted on Day 8 of each cycle. Other chemotherapy medications were limited to dosing on Day 1 of each cycle only. Subjects were followed up for a total of 4 cycles of chemotherapy. Chemotherapy regimen continued beyond the first 4 cycles as per standard of care therapy. In the first cohort, 12 subjects received 1.5 μg/kg the TPO mimetic peptide compound and 4 subjects received placebo. In the second cohort 10 subjects received 3.0 μg/kg the TPO mimetic peptide compound and 4 subjects received placebo. In the third cohort, 12 subjects received 2.25 μg/kg the TPO mimetic peptide compound and 4 subjects received placebo. […] Therefore, a third cohort at a lower dose (2.25 μg/kg) was added to collect additional safety, tolerability, PD, and PK data."}
{"substance": "Methoxypolyethyleneglycol20000-propionyl-L-Isoleucyl-L-Glutamyl-Glycyl-L-Prolyl-L-Threonyl-L-Leucyl-L-Arginyl-L-Glutaminyl-L-2-Naphthylalanyl-L-Leucyl-L-Alanyl-L-Alanyl-L-Arginyl-Sarcosyl-Ne-(methoxypolyethyleneglycol20000-propionyl-L-Isoleucyl-L-Glutamyl-Glycyl-L-Prolyl-L-Threonyl-L-Leucyl-L-Arginyl-L-Glutaminyl-L-2-Naphthylalanyl-L-Leucyl-L-Alanyl-L-Alanyl-L-Arginyl-Sarcosyl-)-Lysinamide [TPO mimetic peptide compound]", "values": [{"measurement": "Adverse event: Fatigue", "setting": "3.0 ug/kg, n of N = 10", "result": 4}, {"measurement": "Adverse event: Febrile neutropenia", "setting": "3.0 ug/kg, n of N = 10", "result": 0}, {"measurement": "Adverse event: Folliculitis", "setting": "3.0 ug/kg, n of N = 10", "result": 0}, {"measurement": "Adverse event: Gastrointestinal disorders", "setting": "3.0 ug/kg, n of N = 10", "result": 6}, {"measurement": "Adverse event: General disorders and administration site conditions", "setting": "3.0 ug/kg, n of N = 10", "result": 6}, {"measurement": "Adverse event: General physical health deterioration", "setting": "3.0 ug/kg, n of N = 10", "result": 0}, {"measurement": "Adverse event: Haematocrit decreased", "setting": "3.0 ug/kg, n of N = 10", "result": 1}, {"measurement": "Adverse event: Headache", "setting": "3.0 ug/kg, n of N = 10", "result": 1}, {"measurement": "Adverse event: Hemorrhoids", "setting": "3.0 ug/kg, n of N = 10", "result": 0}, {"measurement": "Adverse event: Hepatobiliary disorders", "setting": "3.0 ug/kg, n of N = 10", "result": 0}, {"measurement": "Adverse event: Hiccups", "setting": "3.0 ug/kg, n of N = 10", "result": 0}, {"measurement": "Adverse event: Hyperbilirubinaemia", "setting": "3.0 ug/kg, n of N = 10", "result": 0}, {"measurement": "Adverse event: Hypersensitivity", "setting": "3.0 ug/kg, n of N = 10", "result": 1}, {"measurement": "Adverse event: Hypertension", "setting": "3.0 ug/kg, n of N = 10", "result": 0}, {"measurement": "Adverse event: Hypoalbuminaemia", "setting": "3.0 ug/kg, n of N = 10", "result": 0}, {"measurement": "Adverse event: Hypocalcaemia", "setting": "3.0 ug/kg, n of N = 10", "result": 0}, {"measurement": "Adverse event: Hypokalaemia", "setting": "3.0 ug/kg, n of N = 10", "result": 0}, {"measurement": "Adverse event: Hypomagnesaemia", "setting": "3.0 ug/kg, n of N = 10", "result": 0}, {"measurement": "Adverse event: Hyponatraemia", "setting": "3.0 ug/kg, n of N = 10", "result": 0}, {"measurement": "Adverse event: Hypophosphataemia", "setting": "3.0 ug/kg, n of N = 10", "result": 0}, {"measurement": "Adverse event: Immune system disorders", "setting": "3.0 ug/kg, n of N = 10", "result": 1}, {"measurement": "Adverse event: Insomnia", "setting": "3.0 ug/kg, n of N = 10", "result": 1}, {"measurement": "Adverse event: Investigations", "setting": "3.0 ug/kg, n of N = 10", "result": 4}, {"measurement": "Adverse event: Leukocytosis", "setting": "3.0 ug/kg, n of N = 10", "result": 1}, {"measurement": "Adverse event: Leukopenia", "setting": "3.0 ug/kg, n of N = 10", "result": 2}, {"measurement": "Adverse event: Lung abscess", "setting": "3.0 ug/kg, n of N = 10", "result": 0}, {"measurement": "Adverse event: Lymphopenia", "setting": "3.0 ug/kg, n of N = 10", "result": 0}, {"measurement": "Adverse event: Metabolism and nutrition disorders", "setting": "3.0 ug/kg, n of N = 10", "result": 3}, {"measurement": "Adverse event: Mucosal inflammation", "setting": "3.0 ug/kg, n of N = 10", "result": 0}, {"measurement": "Adverse event: Musculoskeletal and connective tissue disorders", "setting": "3.0 ug/kg, n of N = 10", "result": 2}, {"measurement": "Adverse event: Nausea", "setting": "3.0 ug/kg, n of N = 10", "result": 2}, {"measurement": "Adverse event: Neoplasms benign, malignant and unspecified (incl cysts and polyps)", "setting": "3.0 ug/kg, n of N = 10", "result": 0}, {"measurement": "Adverse event: Nervous system disorders", "setting": "3.0 ug/kg, n of N = 10", "result": 2}, {"measurement": "Adverse event: Neuropathy peripheral", "setting": "3.0 ug/kg, n of N = 10", "result": 0}, {"measurement": "Adverse event: Neutropenia", "setting": "3.0 ug/kg, n of N = 10", "result": 3}, {"measurement": "Adverse event: Oedema", "setting": "3.0 ug/kg, n of N = 10", "result": 1}, {"measurement": "Adverse event: Oedema peripheral", "setting": "3.0 ug/kg, n of N = 10", "result": 0}, {"measurement": "Adverse event: Pain", "setting": "3.0 ug/kg, n of N = 10", "result": 0}, {"measurement": "Adverse event: Pain in extremity", "setting": "3.0 ug/kg, n of N = 10", "result": 1}, {"measurement": "Adverse event: Paraesthesia", "setting": "3.0 ug/kg, n of N = 10", "result": 1}, {"measurement": "Adverse event: Peripheral motor neuropathy", "setting": "3.0 ug/kg, n of N = 10", "result": 0}, {"measurement": "Adverse event: Peripheral sensory neuropathy", "setting": "3.0 ug/kg, n of N = 10", "result": 0}, {"measurement": "Adverse event: Platelet count decreased", "setting": "3.0 ug/kg, n of N = 10", "result": 0}, {"measurement": "Adverse event: Psychiatric disorders", "setting": "3.0 ug/kg, n of N = 10", "result": 1}, {"measurement": "Adverse event: Pyrexia", "setting": "3.0 ug/kg, n of N = 10", "result": 2}, {"measurement": "Adverse event: Rash", "setting": "3.0 ug/kg, n of N = 10", "result": 0}, {"measurement": "Adverse event: Renal and urinary disorders", "setting": "3.0 ug/kg, n of N = 10", "result": 0}, {"measurement": "Adverse event: Respiratory failure", "setting": "3.0 ug/kg, n of N = 10", "result": 0}, {"measurement": "Adverse event: Respiratory, thoracic and mediastinal disorders", "setting": "3.0 ug/kg, n of N = 10", "result": 1}, {"measurement": "Adverse event: Skin and subcutaneous tissue disorders", "setting": "3.0 ug/kg, n of N = 10", "result": 3}, {"measurement": "Adverse event: Stomatitis", "setting": "3.0 ug/kg, n of N = 10", "result": 0}, {"measurement": "Adverse event: Tachycardia", "setting": "3.0 ug/kg, n of N = 10", "result": 0}, {"measurement": "Adverse event: Thrombocythaemia", "setting": "3.0 ug/kg, n of N = 10", "result": 0}, {"measurement": "Adverse event: Thrombocytopenia", "setting": "3.0 ug/kg, n of N = 10", "result": 2}, {"measurement": "Adverse event: Tinnitus", "setting": "3.0 ug/kg, n of N = 10", "result": 1}, {"measurement": "Adverse event: Vascular disorders", "setting": "3.0 ug/kg, n of N = 10", "result": 0}, {"measurement": "Adverse event: Vomiting", "setting": "3.0 ug/kg, n of N = 10", "result": 2}, {"measurement": "Adverse event: Weight decreased", "setting": "3.0 ug/kg, n of N = 10", "result": 0}, {"measurement": "Serious adverse event: Abdominal pain", "setting": "3.0 ug/kg, n of N = 10", "result": 0}, {"measurement": "Serious adverse event: Acute myocardial infarction", "setting": "3.0 ug/kg, n of N = 10", "result": 0}, {"measurement": "Serious adverse event: Anorexia", "setting": "3.0 ug/kg, n of N = 10", "result": 0}, {"measurement": "Serious adverse event: Atrial fibrillation", "setting": "3.0 ug/kg, n of N = 10", "result": 0}, {"measurement": "Serious adverse event: Blood and lymphatic system disorders", "setting": "3.0 ug/kg, n of N = 10", "result": 0}, {"measurement": "Serious adverse event: Blood creatinine increased", "setting": "3.0 ug/kg, n of N = 10", "result": 0}, {"measurement": "Serious adverse event: Cardiac disorders", "setting": "3.0 ug/kg, n of N = 10", "result": 0}, {"measurement": "Serious adverse event: Cardiac failure", "setting": "3.0 ug/kg, n of N = 10", "result": 0}, {"measurement": "Serious adverse event: Dehydration", "setting": "3.0 ug/kg, n of N = 10", "result": 0}, {"measurement": "Serious adverse event: Dyspnoea", "setting": "3.0 ug/kg, n of N = 10", "result": 0}, {"measurement": "Serious adverse event: Fatigue", "setting": "3.0 ug/kg, n of N = 10", "result": 0}, {"measurement": "Serious adverse event: Febrile neutropenia", "setting": "3.0 ug/kg, n of N = 10", "result": 0}, {"measurement": "Serious adverse event: Gastrointestinal disorders", "setting": "3.0 ug/kg, n of N = 10", "result": 0}, {"measurement": "Serious adverse event: General disorders and administration site conditions", "setting": "3.0 ug/kg, n of N = 10", "result": 0}, {"measurement": "Serious adverse event: Hyponatraemia", "setting": "3.0 ug/kg, n of N = 10", "result": 0}, {"measurement": "Serious adverse event: Investigations", "setting": "3.0 ug/kg, n of N = 10", "result": 0}, {"measurement": "Serious adverse event: Lung abscess", "setting": "3.0 ug/kg, n of N = 10", "result": 0}, {"measurement": "Serious adverse event: Metabolism and nutrition disorders", "setting": "3.0 ug/kg, n of N = 10", "result": 0}, {"measurement": "Serious adverse event: Nausea", "setting": "3.0 ug/kg, n of N = 10", "result": 0}, {"measurement": "Serious adverse event: Neutropenia", "setting": "3.0 ug/kg, n of N = 10", "result": 0}, {"measurement": "Serious adverse event: Pain", "setting": "3.0 ug/kg, n of N = 10", "result": 0}, {"measurement": "Serious adverse event: Pyrexia", "setting": "3.0 ug/kg, n of N = 10", "result": 0}, {"measurement": "Serious adverse event: Respiratory failure", "setting": "3.0 ug/kg, n of N = 10", "result": 0}, {"measurement": "Serious adverse event: Respiratory, thoracic and mediastinal disorders", "setting": "3.0 ug/kg, n of N = 10", "result": 0}, {"measurement": "Serious adverse event: Thrombocythaemia", "setting": "3.0 ug/kg, n of N = 10", "result": 0}, {"measurement": "Serious adverse event: Thrombocytopenia", "setting": "3.0 ug/kg, n of N = 10", "result": 0}, {"measurement": "Serious adverse event: Vomiting", "setting": "3.0 ug/kg, n of N = 10", "result": 0}, {"measurement": "Total no. subjects WITH ADVERSE EVENTS", "setting": "3.0 ug/kg, n of N = 10", "result": 9}, {"measurement": "Total no. subjects WITH SERIOUS ADVERSE EVENTS", "setting": "3.0 ug/kg, n of N = 10", "result": 0}, {"measurement": "relation of adverse events to dose", "setting": "1.5, 2.25, 3.0 μg/kg", "result": "did not appear to be related to increasing doses"}, {"measurement": "relatedness of all other SAEs to the compound", "setting": "human, in vivo", "result": "unrelated"}, {"measurement": "relatedness of the SAE thrombocythemia to the compound", "setting": "one subject", "result": "very likely"}]}
